Experiments:
[1] = test system: A549, a human lung cancer cell line; assay: WST cell viability assay, A549; assay type: cell-based; conditions: for IC50: 48 h, A549, human lung cancer, WST, read-out: Cell growth inhibition IC50
Description: (§1) After treating LLC, a mouse lung carcinoma cell line, and A549, a human lung cancer cell line, with KUgt-102 derivatives, cell viability was measured by water soluble tetrazolium (WST) cell viability assay.
(§2) The lung cancer cell lines LLC and A549 were attached to a 96-well plate at 5×10e^3 and 1×10e^4 cells/wells, respectively. The next day, the culture medium was removed, and they were added with new medium treated with the KUgt-102 derivative and evogliptin and saxagliptin, respectively, which have a structure similar to that of the derivative of the present disclosure known as a DPP4 inhibitor, as a positive control, in a concentration-dependent manner from 0.01 to 20 mM. Cells treated with the derivative and control group were cultured at 37° C. in 5% CO2. After 2 days, the cultured cells were treated with WST reagent (EZ-CYTOX, Dogen, Republic of Korea) at a final volume of 1:10 to analyze cell viability. Thereafter, the cultured plate was stored in an incubator at 37° C.
(§3) After culturing for 1 hour, the color change was measured at 450 nm using a microplate reader (SpectraMAX190, molecular Devices, CA, USA), and the measurement results are shown in FIGS. 2 and 3.

[2] = test system: LLC, a mouse lung carcinoma cell line; assay: WST cell viability assay, LLC; assay type: cell-based; conditions: 0.01 to 20 mM, 2 days; for IC50: 48 h, mouse lung carcinoma, WST, read-out: Cell growth inhibition IC50
Description: as §1, §2, §3

DPP4 (human recombinant) = biological target: T1, DPP4 (human recombinant) (Homo sapiens, UniProt P27487); assay: DPP4 screening assay (Abcam 133081 kit, Gly-Pro-AMC fluorescent substrate); assay type: biochemical; conditions: FIG. 1; for DPP4 inhibitory activity: treated at 1 μM, 100 nM, 10 nM, 1 nM and 100 pM, 37° C., 30 minutes
T1 construct: purchased Abcam (Boston, USA) 133081
T1 sequence (P27487 whole entry): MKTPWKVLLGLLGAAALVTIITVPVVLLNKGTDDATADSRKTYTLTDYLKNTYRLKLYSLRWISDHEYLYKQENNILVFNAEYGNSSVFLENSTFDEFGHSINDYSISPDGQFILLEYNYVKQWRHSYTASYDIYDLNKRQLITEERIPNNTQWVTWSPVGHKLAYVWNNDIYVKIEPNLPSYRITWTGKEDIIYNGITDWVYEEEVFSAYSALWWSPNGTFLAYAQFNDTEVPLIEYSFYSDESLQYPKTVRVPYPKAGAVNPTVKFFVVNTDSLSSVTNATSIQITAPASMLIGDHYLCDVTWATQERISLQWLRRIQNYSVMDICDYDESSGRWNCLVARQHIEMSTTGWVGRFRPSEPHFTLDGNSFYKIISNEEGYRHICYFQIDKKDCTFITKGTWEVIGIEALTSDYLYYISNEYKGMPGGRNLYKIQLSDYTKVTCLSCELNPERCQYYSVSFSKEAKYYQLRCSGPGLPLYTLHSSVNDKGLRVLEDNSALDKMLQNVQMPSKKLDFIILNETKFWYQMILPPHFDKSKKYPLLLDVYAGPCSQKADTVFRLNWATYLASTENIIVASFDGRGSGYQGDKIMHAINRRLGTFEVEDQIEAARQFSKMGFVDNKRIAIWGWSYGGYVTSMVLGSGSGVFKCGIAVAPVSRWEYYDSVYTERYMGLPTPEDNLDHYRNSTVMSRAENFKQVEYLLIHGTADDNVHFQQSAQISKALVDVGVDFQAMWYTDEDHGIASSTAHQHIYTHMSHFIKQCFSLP
Description: DPP4 screening assay was performed to identify the DPP4 inhibitory activity of the adamantyl derivatives KUgt-102 and KUgt-103 of the present disclosure. Abcam (Boston, USA) 133081 was used as an assay kit, and Gly-Pro-Aminomethylcoumarin was used as a fluorescent substrate. That is, the fluorescence emitted from aminomethylcoumarin (AMC), which was freed by cleaving the peptide bond by DPP, was analyzed at an excitation wavelength of 350 to 360 nm and an emission wavelength of 450 to 465 nm to measure the DPP4 inhibitory activity.
More specifically, DPP Assay Buffer (10×) was dissolved in HPLC-grade pure water, thereby preparing 1× solution. 120 μl of DPP4 (human recombinant) contained in each glass vial was mixed with 480 μl of 1× assay buffer. 120 μl of Gly-Pro-AMC, in which 5 mM H-Gly-Pro was conjugated to AMC, was dissolved in 2.88 ml assay buffer to produce DPP substrate. As a positive control, vildagliptin and saxagliptin, which have a similar structure to the derivative of the present disclosure, known as DPP4 inhibitor, were dissolved in 500 μl of assay buffer to make 1 mM, and the result was used in the reaction. As an experimental group, 10 μl each of adamantyl derivatives KUgt-102 and KUgt-103 was used in the reaction. […] The reaction was repeated three times.
After the reaction, fluorescence was measured at an excitation wavelength of 350-360 nm and an emission wavelength of 450-465 nm using a fluorescence microplate reader (SPECTRA MAX Gemini EM, USA). Thereafter, the inhibitory activity was calculated as follows.

IC50 ([1]; 0.01 to 20 mM, 2 days) [µM] | IC50 [2] [µM] | DPP4 inhibitory activity (DPP4 (human recombinant)) | SMILES | cell viability ([1]; A549, 0.01 to 20 mM, 2 days, FIG. 3) | anticancer activity relative to evogliptin and saxagliptin, based on the same amount ([1]; human lung cancer cell lines) | amount needed for effective killing effect compared to evogliptin and saxagliptin ([1]; human lung cancer cell lines, relative to evogliptin and saxagliptin) [%] | cell viability ([2]; FIG. 2) | DPP4 inhibitory activity compared with positive controls vildagliptin and saxagliptin (DPP4 (human recombinant))
240 ± 10 | 330 ± 10 | excellent DPP4 inhibitory activity | N#C[C@@H]1CCCCN1C(=O)[C@@H](N)C12CC3CC(CC(O)(C3)C1)C2 [KUgt-102, (S)-1-((S)-2-amino-2-((1r,3R,5R,7S)-3-hydroxyadamantan-1-yl)acetyl)piperidine-2-carbonitrile] | inhibited cell viability in a concentration-dependent manner | about three times better anticancer activity | ≤ 30 | inhibited cell viability in a concentration-dependent manner | higher inhibitory activity than vildagliptin and saxacliptin
750 ± 10 | 660 ± 10 |  | CC(C)(C)OC[C@@H]1C(=O)NCCN1C(=O)C[C@H](N)Cc1cc(F)c(F)cc1F [Evogliptin, evogliptin, reference compound] |  |  |  |  | 
 |  | excellent DPP4 inhibitory activity | N[C@H](C(=O)N(CCO)CCO)C12CC3CC(CC(O)(C3)C1)C2 [KUgt-103, (S)-2-amino-2-((1r,3R,5R,7S)-3-hydroxyadamantan-1-yl)-N,N-bis(2-hydroxyethyl)acetamide] |  |  |  |  | 
900 ± 10 | 950 ± 10 |  | N#C[C@@H]1C[C@@H]2C[C@@H]2N1C(=O)[C@@H](N)C12CC3CC(CC(O)(C3)C1)C2 [Saxagliptin, saxagliptin, reference compound] |  |  |  |  | 

From patent US20240158352A1, “NOVEL ADAMANTYL DERIVATIVE OR PHARMACEUTICALLY ACCEPTABLE SALT THEREOF, AND USE THEREOF” (CAN-Therapy Inc., priority 2021, published 2024)
